Laboratory results as given in US6413974B1, “6,9,-disubstituted 2-[trans-(4-aminocyclohexyl) amino] purines” (Aventis Pharmaceuticals Inc., priority 1998, dated 2002).
pIC50: −log10 of the molar value. Several values for one entry are separate records, joined by “and”; a condition that tells them apart may be missing. Equal entries are not always repeated. Structures can show the parent of a compound that is named as a salt. Where two headings read alike, the source gives them in different places.

What was measured:
cdk2/cyclin E = biological target: T1, cdk2/cyclin E (Homo sapiens, UniProt P24941); assay: Cyclin-Dependent Kinase 2 Assay (cdk-2 inhibition); format: biochemical; settings: GST-Rb substrate, 30 min at 30° C.
T1 construct: made in house; host or cells: insect cells (baculovirus co-infection)
Protocol: (§1) The transformed bacteria were grown overnight to saturation, then diluted in YT broth and incubated at 37° C. for 2 h. The protein was induced by incubation with 0.1 mM isopropylthioglycoside for 3 h. Following sedimentation by centrifugation, the cells were lysed by sonication in STE buffer ([…] NaCl, 10 mM Tris, pH 8.0, 1 mM EDTA) containing 10% sarkosyl. Particulate matter was removed by centrifugation and the lysate was incubated with glutathione-Sepharose at 4° C. The beads were washed with kinase buffer and then quantitation of Coomassie blue-stained proteins separated by SDS-PAGE was performed using a protein standard of known concentration.
(§2) Pre-wet Millipore Multiscreen 96-well filter plates (0.65 μm Durapore filters) with 200 μl kinase buffer (50 mM HEPES, pH 7.5, 10 mM MgCl2, 1 mM EGTA). GST-Rb (0.5 μg) bound to glutathione-Sepharose beads is added in 50 μl per well and the solution removed by application of vacuum. […] Add 0.1 μg cdk4/cyclin D1 (insect cell lysate) to initiate assay. Incubate 30 min at 37° C. Terminate reaction by filtration on Millipore Vacuum Manifold. Wash four times with TNEN (20 mM Tris, pH 8.0, 100 mM Na Cl, 1 mM EDTA, 0.5% nonidet P-40). After drying the plates at room temperature, the filter plates were placed in adapter plates (Packard) and 40 μl of Microscint-O® (Packard) was added to each well. Top Seal A film was used to cover the plates before counting in a Top Count Scintillation Counter.
GST-Rb as described above for cdk4/cyclin D1
Assay conditions for cdk2/cyclin E were identical to those for cdk4/cyclin D1 including the substrate. The concentration of recombinant cdk2/cyclin E in the assay was 0.1 μg per 100 μl assay. Incubation was for 30 min at 30° C.

cdk4/cyclin D1 = biological target: T2, cdk4/cyclin D1 (Homo sapiens, UniProt P11802); assay: Cyclin-dependent kinase 4 Assay; format: biochemical; settings: cdk4/cyclin D1, GST-Rb substrate, 10 μM ATP, 30 min at 37° C.; read-out: CDK4 Inhibition IC50
T2 construct: made in house; host or cells: Sf9 insect cells (Bac-to-Bac baculovirus, pFastBac)
T2 sequence (P11802 whole entry): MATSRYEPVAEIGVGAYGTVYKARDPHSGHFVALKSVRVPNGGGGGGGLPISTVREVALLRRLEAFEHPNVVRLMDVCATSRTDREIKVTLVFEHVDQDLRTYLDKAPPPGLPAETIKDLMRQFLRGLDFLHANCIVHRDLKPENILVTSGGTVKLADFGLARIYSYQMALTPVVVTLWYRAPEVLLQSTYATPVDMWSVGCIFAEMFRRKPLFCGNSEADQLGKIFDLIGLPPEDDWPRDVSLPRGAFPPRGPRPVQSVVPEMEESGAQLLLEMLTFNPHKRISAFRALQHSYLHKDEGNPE
T2 sequence (P24385 whole entry partner): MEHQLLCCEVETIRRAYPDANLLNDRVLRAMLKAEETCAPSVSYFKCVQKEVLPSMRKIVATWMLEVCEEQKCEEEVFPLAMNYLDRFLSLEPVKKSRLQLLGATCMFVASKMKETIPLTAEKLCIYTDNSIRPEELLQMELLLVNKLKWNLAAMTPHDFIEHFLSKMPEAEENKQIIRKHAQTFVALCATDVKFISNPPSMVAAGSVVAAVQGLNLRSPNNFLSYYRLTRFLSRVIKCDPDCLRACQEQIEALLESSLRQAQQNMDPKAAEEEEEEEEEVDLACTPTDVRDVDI
Protocol: The IC50 values for cdk-4 inhibition were by the following method:
as §1
The cDNA for human cyclin D1 was cloned by RT PCR using […] from MCF-7 cells. […] Bacmid DNA was used to transfect Sf9 insect cells to produce recombinant virus. Following plaque purification of the virus, the viral preparations were amplified until high titer stocks were acheived.
Lysates were prepared by lysis of Sf9 cells coinfected with cdk4 and cyclin D1 in 50 mM HEPES, pH 7.5, 10 mM MgCl2, 1 mM DTT, 0.1 mM phenylmethylsulfonyl fluoride, 5 μg/ml aprotinin, and 5 μg/ml leupeptin using a PARR bomb under 500 p.s.i nitrogen pressure for 5 min at 4° C. Insoluble material was sedimented at 10,000×g for 20 min at 4° C. Glycerol was added to the supernatant to 10% and stored at −80° C. in aliquots.
as §2

MDA-MB-231 = assay: In vitro tumor cell proliferation, MDA-MB-231; format: cell-based, human; settings: read-out: In vitro Tumor Cell Proliferation (IC50, μM) Breast MDA-MB-231
Protocol: (§3) The proliferation of tumor cells was measured using a sulforhodamine B assay as described in Skehan, P., et al., J. Natl. Cancer Inst. […] Tumor cells were harvested with trypsin-EDTA, cells that excluded trypan blue were counted, added to 96-well plates and incubated overnight at 37° C. Drug was added to the wells following dilution in culture medium. Three days later, the medium was removed and replenished with medium containing fresh drug and incubated an additional 4 days. The cells were then fixed with 0.1 ml 10% trichloroacetic acid for 60 min at 4° C. The plates were rinsed five times with tap water, air-dried and stained for 30 min with 0.4% sulforhodamine B in 1% acetic acid and air-dried.
(§4) Alternatively, the CyQUANT cell proliferation assay was used to quantify tumor cell proliferation. Tumor cells were harvested with trypsin-EDTA, cells that excluded trypan blue were counted, added to 96-well plates and incubated overnight at 37° C. Drug was added to the wells following dilution in culture medium. Three days later the medium was removed and the plates frozen at −80° C. for at least 30 minutes.

MDA-MB-435 = assay: In vitro tumor cell proliferation, MDA-MB-435; format: cell-based, human; settings: read-out: In vitro Tumor Cell Proliferation (IC50, μM) Breast MDA-MB-435
Protocol: as §3, §4

HT-29 = assay: In vitro tumor cell proliferation, HT-29; format: cell-based, human; settings: read-out: In vitro Tumor Cell Proliferation (IC50, μM) Colon HT-29 (converted)
Protocol: as §3, §4
HT-29 is a human colon adenocarcinoma, moderately well-differentiated grade II (HTB 38);

DMS-114 = assay: In vitro tumor cell proliferation, DMS-114; format: cell-based, human; settings: read-out: In vitro Tumor Cell Proliferation (IC50, μM) Lung DMS-114
Protocol: as §3, §4

PC-3 = assay: In vitro tumor cell proliferation, PC-3; format: cell-based, human; settings: read-out: In vitro Tumor Cell Proliferation (IC50, μM) Prostate PC-3
Protocol: as §3, §4

DU 145 = assay: In vitro tumor cell proliferation, DU 145; format: cell-based, human; settings: read-out: In vitro Tumor Cell Proliferation (IC50, μM) Prostate DUI45
Protocol: as §3, §4

Colo-205 = assay: In vitro tumor cell proliferation, Colo-205; format: cell-based, human; settings: read-out: In vitro Tumor Cell Proliferation (IC50, μM) Colon Colo-205
Protocol: as §3, §4

A549 = assay: In vitro tumor cell proliferation, A549; format: cell-based, human; settings: read-out: In vitro Tumor Cell Proliferation (IC50, μM) Lung A549
Protocol: as §3, §4

[1] = Homo sapiens, MDA-MB-231, values marked * (mark not explained)
[2] = values marked * (mark not explained), dihydrochloride
[3] = Homo sapiens, MDA-MB-435, values marked * (mark not explained)
[4] = Homo sapiens, HT-29, values marked * (mark not explained)
[5] = Homo sapiens, DMS-114, values marked * (mark not explained)
[6] = Homo sapiens, PC-3, values marked * (mark not explained)
[7] = Homo sapiens, DU-145, values marked * (mark not explained)
[8] = Homo sapiens, COLO 205, values marked * (mark not explained)
[9] = Homo sapiens, A549, values marked * (mark not explained)

| pIC50 (cdk2/cyclin E) | pIC50 (cdk4/cyclin D1) | IC50 (MDA-MB-231; [1]) [µM] | IC50 (MDA-MB-231; [2]) [µM] | IC50 (MDA-MB-435; [3]) [µM] | IC50 (MDA-MB-435; [2]) [µM] | IC50 (HT-29; [4]) [µM] | IC50 (HT-29; [2]) [µM] | IC50 (DMS-114; [5]) [µM] | IC50 (DMS-114; [2]) [µM] | IC50 (PC-3; [6]) [µM] | IC50 (PC-3; [2]) [µM] | IC50 (DU 145; [7]) [µM] | IC50 (DU 145; [2]) [µM] | IC50 (Colo-205; [8]) [µM] | IC50 (Colo-205; [2]) [µM] | IC50 (A549; [9]) [µM] | IC50 (A549; [2]) [µM] | IC50 (cdk2/cyclin E) | IC50 (DU 145; Homo sapiens, DU-145, values without *) [µM] | Structure (SMILES) |
| --- | --- | --- | --- | --- | --- | --- | --- | --- | --- | --- | --- | --- | --- | --- | --- | --- | --- | --- | --- | --- |
| 7.05 and 6.82 | 6.52 and 6.40 | 2.7 | 2.6 | 5.2 | 6 | 5.6 | 5.1 | 3.7 | 2.8 | 4.6 | 3.1 | 4.4 | 3.2 | – | – | – | – | – | – | N[C@H]1CC[C@H](Nc2nc(NCCCN3CCOCC3)c3ncn(C4CCCC4)c3n2)CC1 [Example 9, 2-[Trans-(4-aminocyclohexyl)amino]-6-[3-(4-morpholinyl)propylamino]-9-cyclopentylpurine dihydrochloride] |
| 7.10 and 7.44 | 6.29 and 6.34 | 1.2 | 1.4 | 2.2 | 2.3 | 1.4 | 1.6 | 1.8 | 1 | 1 | 1.4 | 0.73 | 0.95 | 1.3 | 1.5 | – | – | – | – | CCCCCNc1nc(N[C@H]2CC[C@H](N)CC2)nc2c1ncn2C1CCCC1 [Example 26, 2-[Trans-(4-aminocyclohexyl)amino]-6-(pentylamino)-9-cyclopentylpurine dihydrochloride] |
| 7.34 | 7.24 and 7.17 | 19 | 22 | 44 | 27 | 34 | 29 | 22 | 20 | – | – | 17 | 21 | 17 | 16 | 24 | 15 | – | – | N[C@H]1CC[C@H](Nc2nc(NNCCO)c3ncn(C4CCCC4)c3n2)CC1 [Example 14, 2-[Trans-(4-aminocyclohexyl)amino]-6-[2-hydroxyethylhydrazino]-9-cyclopentylpurine dihydrochloride] |
| 6.85 | 6.22 and 6.05 | 6.5 | 6.6 | – | 11 | 10 | – | 8.7 | 10 | – | – | 12 | 6.7 | 11 | 8.6 | 11 | – | – | – | N[C@H]1CC[C@H](Nc2nc(NCCc3c[nH]c4ccccc34)c3ncn(C4CCCC4)c3n2)CC1 [Example 2, 2-[Trans-(4-aminocyclohexyl)amino]-6-[(3-indolyl)-2-ethylamino]-9-cyclopentylpurine dihydrochloride] |
| – | 5.74 | 2.7 | 3.1 | 5.6 | 5.1 | 3.6 | – | 1.7 | – | – | – | 2.3 | 2.8 | 3.1 | 3.2 | – | – | 91 nM and 44 nM (2×) | – | N[C@H]1CC[C@H](Nc2nc(NNCC(F)(F)F)c3ncn(C4CCCC4)c3n2)CC1 [Example 52, 2-[Trans-(4-aminocyclohexyl)amino]-6-[2,2,2-trifluoroethylhydrazino]-9-cyclopentylpurine dihydrochloride] |
| 7.10 and 7.22 | 6.31 and 6.00 | 7.4 | 8.6 | – | 10 | 10 | 7.3 | 5.6 | – | – | – | 6.7 | 4.4 | 5.6 | 6.6 | 10 | – | – | – | N[C@H]1CC[C@H](Nc2nc(NCCc3ccncc3)c3ncn(C4CCCC4)c3n2)CC1 [Example 31, 2-[Trans-(4-aminocyclohexyl)amino]-6-[(4-pyridyl)-2-ethylamino]-9-cyclopentylpurine dihydrochloride] |
| 6.57 | 5.40 and 5.60 | 19 | 25 | 23 | 38 | 16 | > 20 | 28 | 23 | 16 | – | 15 | 17 | – | – | – | 10 | – | – | CCC(C)(CO)Nc1nc(N[C@H]2CC[C@H](N)CC2)nc2c1ncn2C1CCCC1 (stereo partly shown) [Example 23, dihydrochloride] |
| 7.42 | 6.72 and 6.66 | 1.3 | 1.6 | 3.2 | 4.5 | 1.8 | – | 1.4 | – | – | – | 1.7 | – | 1.9 | 2.1 | – | – | – | 0.86 | CNc1nc(N[C@H]2CC[C@H](N)CC2)nc2c1ncn2C1CCCC1 [Example 28, 2-[Trans-(4-aminocyclohexyl)amino]-6-(methylamino)-9-cyclopentylpurine dihydrochloride] |
| 7.05 | 5.66 | 8.6 | 6 | 10 | 12 | 7.3 | 6 | 5.6 | – | – | – | 4.4 | 4.9 | 6.6 | 5.5 | 2.2 | – | – | – | N[C@H]1CC[C@H](Nc2nc(NCC(F)(F)F)c3ncn(C4CCCC4)c3n2)CC1 [Example 49, 2-[Trans-(4-aminocyclohexyl)amino]-6-[2,2,2-trifluoroethylamino]-9-cyclopentylpurine dihydrochloride] |
